Measurements: ChEMBL document CHEMBL1151599, “Probing the importance of the second chloroethyl arm of a benzoic acid mustard derivative of an imidazole-containing analogue of distamycin” (Bioorg Med Chem Lett, 1994)

Tests used:
Nucleic Acid [1] = experiment: Apparent DNA binding constant to Poly (dA-dT) was determined using an ethidium displacement assay; format: nucleic-acid assay
Nucleic Acid [2] = experiment: Apparent DNA binding constant to Poly (dG-dC) was determined using an ethidium displacement assay; format: nucleic-acid assay
Nucleic Acid [3] = experiment: Apparent DNA binding constant to calf thymus DNA was determined using an ethidium displacement assay; format: nucleic-acid assay; conditions: Bos taurus
Nucleic Acid [4] = experiment: Apparent DNA binding constant to T4 DNA was determined using an ethidium displacement assay; format: nucleic-acid assay
K562 = experiment: Cytotoxicity against the growth of chronic human myeloid leukemia K562 cells in culture following 1 hour exposure of compound using MTT assay; format: functional, cell-based; conditions: K562, 1 h

Structure (SMILES) | K app (Nucleic Acid [1]) [M⁻¹] | K app (Nucleic Acid [2]) [M⁻¹] | K app (Nucleic Acid [3]) [M⁻¹] | K app (Nucleic Acid [4]) [M⁻¹] | IC50 (K562) [µM]
CN(C)CCNC(=O)c1nc(NC(=O)c2nc(NC(=O)c3nc(NC(=O)c4ccc(N(CCCl)CCCl)cc4)cn3C)cn2C)cn1C | 550000 | 500000 | 590000 | 170000 | –
CN(C)CCNC(=O)c1nc(NC(=O)c2nc(NC(=O)c3nc(NC(=O)c4ccc(NCCCl)cc4)cn3C)cn2C)cn1C | 550000 | 900000 | 2.27e+06 | 3.89e+06 | > 100
